Source: patent US5001115A, “Prodrugs of biologically active hydroxyaromatic compounds” (University of Florida, priority 1989, dated 1991)
Each block holds one compound with its values, some of them ahead of it.

Experiment: Hydrolysis in pH=7.1 buffer at room temperature
Format: physicochemical
Description: The compounds: [drawing 4] were prepared similarly to the above product and their hydrolytic properties under similar conditions were evaluated.

- half-life (similar conditions (pH=7.1 buffer, room temperature)): ~6 h
Structure (SMILES): O=C1CCC(=O)N1COc1ccc([N+](=O)[O-])cc1 [(b)]

- half-life (pH=7.1 buffer, room temperature): ~0.283 h
Structure (SMILES): O=C1c2ccccc2S(=O)(=O)N1COc1ccc([N+](=O)[O-])cc1 [Example 1, 4-Nitro-1-[1',1',3'-trioxo-(2'H)-1',2'-benzisothiazol-2'-yl]methoxybenzene]

- hydrolytic stability (in words) (pH=7.1, similar conditions): completely stable
Structure (SMILES): O=C(NCOc1ccc([N+](=O)[O-])cc1)c1ccccc1 [Compound (a)]
